Measured values from patent US7811832B2, “Methods for preserving the viability of photoreceptor cells by anti-FAS-ligand/anti-FAS-receptor antibodies” (Massachusetts Eye and Ear Infirmary, priority 2002, dated 2010).

Key:
caspase 4 = biological target: T1, caspase 4 (Homo sapiens, UniProt P49662); conditions: cited from earlier work
T1 sequence (P49662 81-270 limits assumed): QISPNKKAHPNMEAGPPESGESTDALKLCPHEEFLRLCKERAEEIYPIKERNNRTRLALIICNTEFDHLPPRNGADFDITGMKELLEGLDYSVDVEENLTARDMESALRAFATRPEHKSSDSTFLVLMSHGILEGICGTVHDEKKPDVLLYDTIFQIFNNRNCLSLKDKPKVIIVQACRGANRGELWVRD
T1 sequence (P49662 290-377 limits assumed): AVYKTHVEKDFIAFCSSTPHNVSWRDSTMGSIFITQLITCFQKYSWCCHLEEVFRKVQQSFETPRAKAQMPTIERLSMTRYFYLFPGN

caspase 1 = biological target: T2, caspase 1 (Homo sapiens, UniProt P29466); conditions: cited from earlier work
T2 sequence (P29466 120-297 limits assumed): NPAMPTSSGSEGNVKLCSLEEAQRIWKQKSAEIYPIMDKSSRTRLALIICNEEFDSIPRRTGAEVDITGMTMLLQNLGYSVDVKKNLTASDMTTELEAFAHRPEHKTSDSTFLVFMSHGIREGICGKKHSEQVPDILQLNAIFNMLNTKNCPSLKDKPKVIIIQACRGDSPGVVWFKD
T2 sequence (P29466 317-404 limits assumed): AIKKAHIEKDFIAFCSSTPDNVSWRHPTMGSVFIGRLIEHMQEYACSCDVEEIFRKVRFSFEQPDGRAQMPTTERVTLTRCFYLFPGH

caspase 7 = biological target: T3, caspase 7 (Homo sapiens, UniProt P55210); conditions: cited from earlier work
T3 sequence (P55210 24-198 limits assumed): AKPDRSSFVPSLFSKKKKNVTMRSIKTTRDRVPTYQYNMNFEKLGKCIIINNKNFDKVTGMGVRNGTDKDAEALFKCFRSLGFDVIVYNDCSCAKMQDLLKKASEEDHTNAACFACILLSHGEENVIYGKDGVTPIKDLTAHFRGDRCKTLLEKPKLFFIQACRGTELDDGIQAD
T3 sequence (P55210 207-303 limits assumed): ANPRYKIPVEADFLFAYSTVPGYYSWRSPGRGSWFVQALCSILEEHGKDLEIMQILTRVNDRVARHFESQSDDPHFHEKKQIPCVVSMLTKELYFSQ

caspase 3 = biological target: T4, caspase 3 (Homo sapiens, UniProt P42574); conditions: cited from earlier work
T4 sequence (P42574 29-175 limits assumed): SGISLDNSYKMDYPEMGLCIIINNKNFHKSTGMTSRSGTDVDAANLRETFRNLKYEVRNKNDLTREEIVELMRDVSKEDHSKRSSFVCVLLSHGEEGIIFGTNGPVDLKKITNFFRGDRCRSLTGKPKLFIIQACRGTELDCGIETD
T4 sequence (P42574 176-277 limits assumed): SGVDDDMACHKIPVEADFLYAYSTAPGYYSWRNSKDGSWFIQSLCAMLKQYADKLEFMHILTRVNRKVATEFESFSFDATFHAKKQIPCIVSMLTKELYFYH

photoreceptor cells = assay: TUNEL staining of outer nuclear layer after experimental retinal detachment; assay type: in vivo, Brown Norway rats; conditions: detached retina (left eye); 5 μl of 2 mM in DMSO subretinal; 72 hours after detachment; TUNEL-positive cells/100 cells in outer nuclear layer
Procedure: Briefly, the retinal detachments were created in the left eyes of three Brown Norway rats, as described in Example 2, section 2.1. The detachment was located on the temporal portion of the retina, and comprised approximately one third of the total retinal area.
A first rat received the retinal detachment only. A second rat received the retinal detachment and a caspase 9 inhibitor in DMSO. Briefly, immediately after the retina was detached, 5 μl of the zLEHD.fmk (2 mM solution in DMSO) (BioVision) was injected into the subretinal space of the detached retina using a Hamilton Syringe (Hamilton Corp, Reno, Nev.). A third rat received the retinal detachment and DMSO (solvent control). Briefly, 5 μl of DMSO was injected into the subretinal space of the detached retinas as a control for the solvent in which the zLEHD.fmk was dissolved.
The rats were allowed to recover from the surgery and were returned to their cages, as per standard animal care protocols. Seventy-two hours (3 days) after creation of the detachments, the eyes were enucleated and immersion-fixed in 4% paraformaldehyde solution for 24 hours. The fixed eyes were then embedded in paraffin and sectioned for histologic analysis. […]
The number of TUNEL-positive cells/100 cells in the outer nuclear layer were counted for 3 high power fields per section for 2 separate slides.

caspase 9 = assay: Caspase 9 activity (LEHD-pNA cleavage) in detached retina after injection of inhibitor at the time of detachment; assay type: in vivo, Brown-Norway rats; conditions: 5 μl of 2 mM solution in DMSO into the subretinal space, 24 hours after retinal detachment, normalized to attached retina
Procedure: Briefly, rats were anesthetized with a 50:50 mix of ketamine (100 mg/ml) and xylazine (20 mg/ml), and pupils were dilated with topical phenylephrine (2.5%) and tropicamide (1%). A sclerotomy was created approximately 2 mm posterior to the limbus with a 20-guage microvitreoretinal blade (Walcott Scientific, Marmora, N.J.), with special caution to not damage the lens. A Glaser subretinal injector (32-gauge tip; BD Ophthalmic Systems, Sarasota, Fla.) connected to a syringe filled with 10 mg/ml sodium hyaluronate (Healon®; Pharmacia and Upjohn Co., Kalamazoo, Mich.) was introduced through the sclerotomy into the vitreous cavity. The tip of the subretinal injector was introduced into the subretinal space through a peripheral retinotomy, and the sodium hyaluronate was slowly injected. The neurosensory retina was thus detached from the underlying retinal pigment epithelium. In all experiments, approximately one-third to one-half of the retina was detached. Detachments were made in the left eye, with the right eye serving as the control. […]
Caspase 9 activity was measured using a calorimetric tetrapeptide LEHD-pNA cleavage assay kit according to the manufacturer's instructions (BioVision, Mountain View, Calif.). […] Absorbance was measured at 405 nm in a microplate reader (SpectraMAX 190, Molecular Devices). […]

For Ac-Tyr-Val-Ala-Asp-aldehyde, the Ki (caspase 4) is listed as 10 nM, the Ki (caspase 1) is listed as 10 nM and the Ki (caspase 7) is listed as at least 50000 nM. For the same substance, the Ki (caspase 3) was at least 50000 nM.
With “z-Leu-Glu-His-Asp-fluoromethylketone [zLEHD.fmk]” the “% TUNEL positive cells” value (photoreceptor cells) was 4.6% TUNEL positive and the “caspase 9 activity, % of the control level” value (caspase 9) was “approximately 50%”.
